From ChEMBL document CHEMBL5385857, “Optimization and SAR research at the benzoxazole and tetrazole rings of JNJ4796 as new anti-influenza A virus agents, part 2” (Eur J Med Chem, 2023)
Active and inactive are the calls of the source. No cut-off for these calls is given here.

Legend:
[1] = Selectivity index, ratio of CC50 for MDCK cells to IC50 for influenza A virus infected in MDCK cells; type: toxicity, cell-based; conditions: dog, read-out: Ratio CC50/IC50
Influenza A virus [2] = assay: Antiviral activity against influenza A virus H1N1 infected in MDCK cells; type: functional, organism-based
[3] = Cytotoxicity against MDCK cells; type: toxicity, cell-based, Canis lupus familiaris; conditions: dog
[4] = AUC (0 to infinity) in Balb/c mouse at 25 mg/kg, po administered as single dose; type: ADME, organism-based; set-up: dose 25 mg/kg, route po; conditions: in vivo
[5] = Cmax in Balb/c mouse at 25 mg/kg, po administered as single dose; type: ADME, organism-based; set-up: dose 25 mg/kg, route po; conditions: in vivo
[6] = Tmax in Balb/c mouse at 25 mg/kg, po administered as single dose; type: ADME, organism-based; conditions: in vivo
[7] = Elimination half life in Balb/c mouse at 25 mg/kg, po administered as single dose; type: ADME, organism-based; conditions: in vivo, read-out: beta t1/2 (converted)
[8] = system: Infectious bronchitis virus; assay: Antiviral activity against Infectious bronchitis virus; type: functional, organism-based
Influenza A virus [9] = assay: Antiviral activity against Influenza A virus H3N2 subtype; type: functional, organism-based
Influenza A virus [10] = assay: Antiviral activity against influenza A virus H1N1 A/Puerto Rico/8/1934 infected in Kunming mouse assessed as survival rate at 1.67 mg/kg, po administered with compound twice daily for 7 days followed by viral infection on day 2 and measured for 14 days relative to control; type: functional; conditions: H1N1 A/Puerto Rico/8/1934, 336 h, time 14 day
[11] = Toxicity in Kunming mouse infected with influenza A virus H1N1 A/Puerto Rico/8/1934 assessed as reduction in body weight at 5 to 15 mg/kg, po administered with compound twice daily for 7 days followed by viral infection on day 2 and measured for 14 days relative to oseltamivir; type: organism-based; conditions: in vivo, 336 h, dose 5-15 mg/kg, time 14 day
Influenza A virus [12] = assay: Antiviral activity against influenza A virus H1N1 A/Puerto Rico/8/1934 infected in Kunming mouse assessed as survival rate at 5 to 15 mg/kg, po administered with compound twice daily for 7 days followed by viral infection on day 2 and measured for 14 days relative to control; type: functional; conditions: dose 5-15 mg/kg, time 14 day
[13] = Toxicity in Kunming mouse infected with influenza A virus H1N1 A/Puerto Rico/8/1934 assessed as reduction in body weight at 1.67 to 15 mg/kg, po administered with compound twice daily for 7 days followed by viral infection on day 2 and measured for 14 days relative to oseltamivir; type: organism-based; conditions: in vivo, 336 h, dose 1.67-15 mg/kg, time 14 day
[14] = Gastrointestinal toxicity in Kunming mouse infected with influenza A virus H1N1 A/Puerto Rico/8/1934 assessed as soft stool at 1.67 to 15 mg/kg, po administered with compound twice daily for 7 days followed by viral infection on day 2 and measured for 14 days; type: organism-based; conditions: in vivo, 336 h, dose 1.67-15 mg/kg, time 14 day
hERG (KCNH2) = hERG (KCNH2) (Homo sapiens, UniProt Q12809); assay: Inhibition of hERG at 10 uM relative to control; type: toxicity
Influenza A virus [15] = assay: Antiviral activity against influenza A virus H1N1 A/Puerto Rico/8/1934 infected in Kunming mouse assessed as survival rate at 15 mg/kg, po administered with compound twice daily for 7 days followed by viral infection on day 2 and measured for 14 days relative to control; type: functional; conditions: H1N1 A/Puerto Rico/8/1934, 336 h, time 14 day

hERG (KCNH2), sequence (Q12809 whole entry): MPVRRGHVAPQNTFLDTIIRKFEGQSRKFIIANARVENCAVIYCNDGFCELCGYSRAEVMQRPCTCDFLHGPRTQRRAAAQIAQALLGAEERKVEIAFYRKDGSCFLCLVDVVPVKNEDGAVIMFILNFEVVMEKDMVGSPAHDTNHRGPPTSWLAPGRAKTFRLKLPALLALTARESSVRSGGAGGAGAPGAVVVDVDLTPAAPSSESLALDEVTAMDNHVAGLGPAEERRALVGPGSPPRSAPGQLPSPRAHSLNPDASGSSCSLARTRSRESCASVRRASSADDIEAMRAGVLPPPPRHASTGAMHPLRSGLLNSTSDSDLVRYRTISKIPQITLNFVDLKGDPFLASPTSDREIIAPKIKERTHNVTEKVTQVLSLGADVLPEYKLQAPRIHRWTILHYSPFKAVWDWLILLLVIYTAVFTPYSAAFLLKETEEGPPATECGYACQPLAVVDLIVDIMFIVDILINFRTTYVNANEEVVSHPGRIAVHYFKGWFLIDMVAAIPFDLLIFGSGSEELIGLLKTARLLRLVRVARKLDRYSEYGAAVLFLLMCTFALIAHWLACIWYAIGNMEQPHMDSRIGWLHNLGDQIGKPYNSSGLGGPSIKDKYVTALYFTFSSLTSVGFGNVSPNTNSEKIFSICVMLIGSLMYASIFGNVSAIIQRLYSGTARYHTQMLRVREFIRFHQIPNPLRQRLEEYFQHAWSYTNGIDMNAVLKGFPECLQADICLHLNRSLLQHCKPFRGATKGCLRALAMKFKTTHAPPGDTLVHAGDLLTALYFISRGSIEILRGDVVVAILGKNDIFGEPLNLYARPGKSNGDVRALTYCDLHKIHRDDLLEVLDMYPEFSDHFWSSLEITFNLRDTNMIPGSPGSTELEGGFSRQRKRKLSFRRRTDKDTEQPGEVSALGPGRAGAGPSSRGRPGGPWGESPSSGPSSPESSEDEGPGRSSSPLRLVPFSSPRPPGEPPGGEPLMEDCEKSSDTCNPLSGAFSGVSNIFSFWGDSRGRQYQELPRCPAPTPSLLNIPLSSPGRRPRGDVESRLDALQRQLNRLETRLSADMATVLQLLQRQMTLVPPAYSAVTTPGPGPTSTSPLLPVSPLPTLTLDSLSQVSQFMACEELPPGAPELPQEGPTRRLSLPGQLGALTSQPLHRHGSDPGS

Row | SMILES | selectivity ratio [1] | IC50 (Influenza A virus [2]) | CC50 [3] | further results
1 | CC(=O)Nc1ccc2oc(-c3ccnc(C(=O)N4CCN([C@H](c5ccccc5)c5nnn(C(C)C)n5)CC4)c3)nc2c1 | > 1000 | 100 nM | > 100000 nM | –
2 | C=Cn1nnc([C@H](c2ccc(F)cc2)N2CCN(C(=O)c3cc(-c4nc5cc(NC(C)=O)ccc5o4)ccn3)CC2)n1 | > 34 | 2930 nM | > 100000 nM | –
3 | Cn1nnc(C(c2ccc(F)cc2)N2CCN(C(=O)c3cc(-c4nc5cc(NC(=O)C6CCCO6)ccc5o4)ccn3)CC2)n1 (stereo not drawn) | – | 820 nM | > 50000 nM | –
4 | CC(=O)Nc1ccc2oc(-c3ccnc(C(=O)N4CCN(C(c5ccc(F)cc5)c5nnn(C(C)C)n5)CC4)c3)nc2c1 (stereo not drawn) | – | 220 nM | > 50000 nM | –
5 | Cn1nnc(C(c2ccc(F)cc2)N2CCN(C(=O)c3cc(-c4nc5cc(NC(=O)C6CCCCC6)ccc5o4)ccn3)CC2)n1 (stereo not drawn) | – | 820 nM | 1430 nM | –
6 | CC(=O)Nc1ccc2oc(-c3ccnc(C(=O)N4CCN([C@H](c5ccc(F)cc5)c5nnn(C6CCCC6)n5)CC4)c3)nc2c1 | 792 | 110 nM | 87200 nM | AUC(0-inf) [4]: 692 ng·h/mL; Cmax [5]: 992 ng/mL; Tmax [6]: 15 min; half-life [7]: 26.5 min
7 | COCCn1nnc(C(c2ccc(F)cc2)N2CCN(C(=O)c3cc(-c4nc5cc(NC(C)=O)ccc5o4)ccn3)CC2)n1 (stereo not drawn) | – | 2470 nM | > 50000 nM | –
8 | CCCC(=O)Nc1ccc2oc(-c3ccnc(C(=O)N4CCN(C(c5ccc(F)cc5)c5nnn(C)n5)CC4)c3)nc2c1 (stereo not drawn) | – | 630 nM | > 50000 nM | –
9 | CCC(=O)Nc1ccc2oc(-c3ccnc(C(=O)N4CCN(C(c5ccc(F)cc5)c5nnn(C)n5)CC4)c3)nc2c1 (stereo not drawn) | – | 450 nM | > 50000 nM | –
10 | CC(=O)Nc1ccc2sc(-c3ccnc(C(=O)N4CCN(C(c5ccccc5)c5nnnn5C(C)C)CC4)c3)nc2c1 (stereo not drawn) | – | > 15000 nM | 38500 nM | –
11 | CC(=O)Nc1ccc2oc(-c3ccnc(C(=O)N4CCN(C(c5ccc(F)cc5)c5nnn(C)n5)CC4)c3)nc2c1 (stereo not drawn) | – | – | – | Activity [8]: inactive; Activity (Influenza A virus [9]): inactive
12 | CC(=O)Nc1ccc2sc(-c3ccnc(C(=O)N4CCN(C(c5ccccc5)c5nnn(C(C)C)n5)CC4)c3)nc2c1 (stereo not drawn) | – | 1430 nM | > 50000 nM | –
13 | CC(=O)Nc1ccc2oc(-c3ccnc(C(=O)N4CCN(C(c5ccc(F)cc5)c5nnn(C6CCCCC6)n5)CC4)c3)nc2c1 (stereo not drawn) | – | 270 nM | > 50000 nM | –
14 | CC(=O)Nc1ccc2oc(-c3ccnc(C(=O)N4CCN([C@@H](c5ccc(F)cc5)c5nnn(CCC(C)C)n5)CC4)c3)nc2c1 | > 39 | 2510 nM | > 100000 nM | –
15 | CC(=O)Nc1ccc2oc(-c3ccnc(C(=O)N4CCN([C@H](c5ccccc5)c5nnn(C)n5)CC4)c3)nc2c1 | – | – | – | survival at 1.67 mg/kg (Influenza A virus [10]): 80%; Activity [8]: inactive; Activity (Influenza A virus [9]): inactive; Activity [11]: Non-Toxic; Survival (Influenza A virus [12]): 100%
16 | CC(=O)Nc1ccc2oc(-c3ccnc(C(=O)N4CCN(C(c5ccc(F)cc5)c5nnn(C6CC6)n5)CC4)c3)nc2c1 (stereo not drawn) | – | 1190 nM | > 50000 nM | –
17 | CC(=O)Nc1ccc2oc(-c3ccnc(C(=O)N4CCN([C@H](c5ccc(F)cc5)c5nnn(CCC(C)C)n5)CC4)c3)nc2c1 | > 384 | 260 nM | > 100000 nM | –
18 | CCC(CC)n1nnc([C@H](c2ccc(F)cc2)N2CCN(C(=O)c3cc(-c4nc5cc(NC(C)=O)ccc5o4)ccn3)CC2)n1 | > 250 | 400 nM | > 100000 nM | –
19 | Cn1nnc(C(c2ccc(F)cc2)N2CCN(C(=O)c3cc(-c4nc5cc(NC(=O)c6ccccc6)ccc5o4)ccn3)CC2)n1 (stereo not drawn) | – | 630 nM | 10700 nM | –
20 | CCCCn1nnc(C(c2ccc(F)cc2)N2CCN(C(=O)c3cc(-c4nc5cc(NC(C)=O)ccc5o4)ccn3)CC2)n1 (stereo not drawn) | – | 380 nM | > 50000 nM | –
21 | C=Cn1nnc(C(c2ccc(F)cc2)N2CCN(C(=O)c3cc(-c4nc5cc(NC(C)=O)ccc5o4)ccn3)CC2)n1 (stereo not drawn) | – | 270 nM | > 50000 nM | –
22 | CC(=O)Nc1ccc2oc(-c3ccnc(C(=O)N4CCN([C@H](c5ccc(F)cc5)c5nnn(C)n5)CC4)c3)nc2c1 | – | – | > 100000 nM | survival at 1.67 mg/kg (Influenza A virus [10]): 70%; Activity [13]: Non-Toxic; Activity [14]: Toxic; Survival (Influenza A virus [12]): 100%

Row | SMILES | selectivity ratio [1] | IC50 (Influenza A virus [2]) | CC50 [3] | further results
23 | C=Cn1nnc([C@@H](c2ccc(F)cc2)N2CCN(C(=O)c3cc(-c4nc5cc(NC(C)=O)ccc5o4)ccn3)CC2)n1 | > 3330 | 30 nM | > 100000 nM | AUC(0-inf) [4]: 2100 ng·h/mL; inhibition at 10 µM (hERG (KCNH2)): 36.4%; Cmax [5]: 2130 ng/mL; Tmax [6]: 15 min; half-life [7]: 94.2 min
24 | Cn1nnc(C(c2ccc(F)cc2)N2CCN(C(=O)c3cc(-c4nc5cc(NC(=O)c6ccco6)ccc5o4)ccn3)CC2)n1 (stereo not drawn) | – | 220 nM | 12800 nM | –
25 | CC(=O)Nc1ccc2oc(-c3ccnc(C(=O)N4CCN([C@H](c5ccc(F)cc5)c5nnn(C(C)C)n5)CC4)c3)nc2c1 | > 3330 | 30 nM | > 100000 nM | AUC(0-inf) [4]: 2980 ng·h/mL; inhibition at 10 µM (hERG (KCNH2)): 27.1%; Cmax [5]: 3770 ng/mL; Tmax [6]: 15 min; survival at 15 mg/kg (Influenza A virus [15]): 80%; half-life [7]: 75 min
26 | CC(=O)Nc1ccc2oc(-c3ccnc(C(=O)N4CCN([C@@H](c5ccc(F)cc5)c5nnn(C6CCCC6)n5)CC4)c3)nc2c1 | 188 | 510 nM | 96200 nM | –
27 | CCC(CC)n1nnc(C(c2ccc(F)cc2)N2CCN(C(=O)c3cc(-c4nc5cc(NC(C)=O)ccc5o4)ccn3)CC2)n1 (stereo not drawn) | – | 360 nM | > 50000 nM | –
28 | CCC(CC)n1nnc([C@@H](c2ccc(F)cc2)N2CCN(C(=O)c3cc(-c4nc5cc(NC(C)=O)ccc5o4)ccn3)CC2)n1 | > 1110 | 90 nM | > 100000 nM | –
29 | CCC(CC)C(=O)Nc1ccc2oc(-c3ccnc(C(=O)N4CCN(C(c5ccc(F)cc5)c5nnn(C)n5)CC4)c3)nc2c1 (stereo not drawn) | – | 360 nM | 28600 nM | –
30 | CCCCn1nnc([C@H](c2ccc(F)cc2)N2CCN(C(=O)c3cc(-c4nc5cc(NC(C)=O)ccc5o4)ccn3)CC2)n1 | > 83 | 1200 nM | > 100000 nM | –
31 | CCCn1nnc(C(c2ccc(F)cc2)N2CCN(C(=O)c3cc(-c4nc5cc(NC(C)=O)ccc5o4)ccn3)CC2)n1 (stereo not drawn) | – | 630 nM | > 50000 nM | –
32 | CC(=O)Nc1ccc2oc(-c3ccnc(C(=O)N4CCN(C(c5ccc(F)cc5)c5nnn(CCC(C)C)n5)CC4)c3)nc2c1 (stereo not drawn) | – | 350 nM | > 50000 nM | –
33 | CC(=O)Nc1ccc2oc(-c3ccnc(C(=O)N4CCN(C(c5ccc(F)cc5)c5nnn(CC6CCCCC6)n5)CC4)c3)nc2c1 (stereo not drawn) | – | 360 nM | 38500 nM | –
34 | CCn1nnc(C(c2ccc(F)cc2)N2CCN(C(=O)c3cc(-c4nc5cc(NC(C)=O)ccc5o4)ccn3)CC2)n1 (stereo not drawn) | – | 630 nM | > 50000 nM | –
35 | CC(=O)Nc1ccc2oc(-c3ccnc(C(=O)N4CCN([C@@H](c5ccccc5)c5nnn(C(C)C)n5)CC4)c3)nc2c1 | > 120 | 830 nM | > 100000 nM | –
36 | CC(=O)Nc1ccc2oc(-c3ccnc(C(=O)N4CCN([C@@H](c5ccc(F)cc5)c5nnn(C(C)C)n5)CC4)c3)nc2c1 | > 39 | 2560 nM | > 100000 nM | –
37 | Cn1nnc(C(c2ccc(F)cc2)N2CCN(C(=O)c3cc(-c4nc5cc(NC(=O)C(C)(C)C)ccc5o4)ccn3)CC2)n1 (stereo not drawn) | – | 350 nM | 12800 nM | –
38 | CC(=O)Nc1ccc2oc(-c3ccnc(C(=O)N4CCN(C(c5ccc(F)cc5)c5nnn(C6CCOCC6)n5)CC4)c3)nc2c1 (stereo not drawn) | – | 1080 nM | > 50000 nM | –
39 | CCCCn1nnc([C@@H](c2ccc(F)cc2)N2CCN(C(=O)c3cc(-c4nc5cc(NC(C)=O)ccc5o4)ccn3)CC2)n1 | > 714 | 140 nM | > 100000 nM | –
40 | CC(=O)Nc1ccc2oc(-c3ccnc(C(=O)N4CCN(C(c5ccc(F)cc5)c5nnn(CCC6CCCCC6)n5)CC4)c3)nc2c1 (stereo not drawn) | – | 820 nM | > 50000 nM | –
41 | CC(=O)Nc1ccc2oc(-c3ccnc(C(=O)N4CCN(C(c5ccccc5)c5nnn(C(C)C)n5)CC4)c3)nc2c1 (stereo not drawn) | – | 150 nM | > 50000 nM | –
42 | Cn1nnc(C(c2ccc(F)cc2)N2CCN(C(=O)c3cc(-c4nc5cc(NC(=O)C6CCCC6)ccc5o4)ccn3)CC2)n1 (stereo not drawn) | – | 630 nM | 5140 nM | –
43 | CC(=O)Nc1ccc2oc(-c3ccnc(C(=O)N4CCN(C(c5ccccc5)c5nnnn5C(C)C)CC4)c3)nc2c1 (stereo not drawn) | – | > 15000 nM | > 50000 nM | –
44 | CC(=O)Nc1ccc2oc(-c3ccnc(C(=O)N4CCN(C(c5ccc(F)cc5)c5nnn(C6CCCC6)n5)CC4)c3)nc2c1 (stereo not drawn) | – | 260 nM | > 50000 nM | –
